In data set [1] the target is PLA2 obtained from cobra venom (N. naja naja) (Naja naja, UniProt P15445). It is filed as biochemical.
The target in data set [2] is phospholipase A2 obtained from cobra venom (Naja naja, UniProt P15445). It counts as biochemical.
Data set [3] in a line: Stability of p-nitrophenyl esters in solvents. It is filed as physicochemical. To be noted: polar solvents such as alcohols. How it is done:
Pure samples of 1a-1e were obtained after HPLC chromatography using anhydrous MeOH to elute the lipid from a Brownlee C18 column. […] Storage of these compounds at -10° C. in CHCl3 or CH2 Cl2 greatly enhances the stability. Therefore, HPLC-purified SIBLINKS were immediately transferred to CHCl3 for storage. In an aqueous environment, the stability is enhanced when incorporated into vesicles or Triton micelles. The following are representative spectral data for lipids 1b, 1c, 1d and 1e containing a decanoyl (C10) chain moiety at the sn-1 position.

In data set [4] the target is phospholipase A2 obtained from cobra venom (Naja naja naja) (Naja naja, UniProt P15445). It is filed as biochemical.
phospholipase A2 obtained from cobra venom (Naja naja naja), sequence (P15445 whole entry, looked up): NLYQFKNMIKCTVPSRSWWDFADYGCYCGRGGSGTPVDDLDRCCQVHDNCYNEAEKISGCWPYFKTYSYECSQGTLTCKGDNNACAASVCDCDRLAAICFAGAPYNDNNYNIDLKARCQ
Data set [5] concerns the target cobra venom phospholipase A2 (PLA2) (Naja naja, UniProt P15445). To be noted: cited from earlier work.
In data set [6] the target is bee venom phospholipase A2 (PLA2) (Apis mellifera, UniProt P00630). The conditions noted are these: cited from earlier work.
bee venom phospholipase A2 (PLA2), sequence (P00630 34-167 limits assumed): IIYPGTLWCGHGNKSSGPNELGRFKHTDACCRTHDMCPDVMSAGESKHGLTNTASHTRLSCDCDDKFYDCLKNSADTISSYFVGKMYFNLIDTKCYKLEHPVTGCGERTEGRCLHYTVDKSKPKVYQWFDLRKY
For data set [7] the following is noted: in vivo; cited from earlier work.
For the next data set, the system named is PLA2. To be noted: modification of lysine residues; cited from earlier work.

A value given as a limit tells only on which side of the number the result lay.

phospholipase A2 obtained from cobra venom, sequence (P15445 whole entry, looked up): as the sequence (P15445 whole entry, looked up) above
PLA2 obtained from cobra venom (N. naja naja), sequence (P15445 whole entry, looked up): as above
cobra venom phospholipase A2 (PLA2), sequence (P15445 whole entry, looked up): as above

In the case of `CCCCCCCCCC(=O)OC[C@H](COP(=O)([O-])OCC[N+](C)(C)C)OC(=O)CC(C)(C)CC(=O)Oc1ccc([N+](=O)[O-])cc1` [1c], the “V, initial velocity for release of p-nitrophenol” value in data set [1] turned out to be 0.002 µmol/min/mg. Also, the “efficiency of enzymatic deactivation (suicide inhibition)” value (“efficiency … (suicide inhibition)” for short) in data set [2] is listed as “more efficient suicide inhibitors”.

Turning to `CCCCCCCCCC(=O)OC[C@H](COP(=O)([O-])OCC[N+](C)(C)C)OC(=O)CCC(=O)Oc1ccc([N+](=O)[O-])cc1` [1d], the “V, initial velocity for release of p-nitrophenol” value in data set [1] came out at 0.6 µmol/min/mg. In data set [2], the “concentration below which mixed micelles do not inhibit” value turned out to be 20 NM; the “effect on P of raising preincubation temperature” value was “did increase P”; the “effect on inactivation time course of raising preincubation temperature” value is listed as “little effect”; the “efficiency … (suicide inhibition)” value is listed as “less efficient, but is processed faster”. Also, in data set [2], the “ratio of inhibitor/PLA2 needed to observe inhibition” value is given as > 40. The “stability of p-nitrophenyl ester” value in data set [3] is given as “especially prone to hydrolysis”.

As for `CCCCCCCCCC(=O)OC[C@H](COP(=O)([O-])OCC[N+](C)(C)C)OC(=O)CC(C)(C)C(=O)Oc1ccc([N+](=O)[O-])cc1` [1e], the “V, initial velocity for release of p-nitrophenol” value in data set [1] stood at 0.005 µmol/min/mg. In addition, the “efficiency … (suicide inhibition)” value in data set [2] is “more efficient suicide inhibitors”.

Regarding `CCCCCCCCCC(=O)OC[C@H](COP(=O)([O-])OCC[N+](C)(C)C)OC(=O)CCCC(=O)Oc1ccc([N+](=O)[O-])cc1` [compound 1a], the “V, initial velocity for release of p-nitrophenol” value in data set [1] is 155 µmol/min/mg. Further, in data set [4], the “change of hydrolysis rate with Triton/phospholipid surface ratio” value is reported as “diminishes three-fold” and the “concentration of substrate required to reach half saturation, versus DPPC” value is reported as “lower concentration of substrate”. For the same compound, the “stability of p-nitrophenyl ester” value in data set [3] is given as “especially prone to hydrolysis”.

As for `CCCCCCCCCC(=O)OC[C@H](COP(=O)([O-])OCC[N+](C)(C)C)OC(=O)CCC(C)(C)C(=O)Oc1ccc([N+](=O)[O-])cc1` [compound 1b], in data set [1], the “V, initial velocity for release of p-nitrophenol” value was found to be 0.11 µmol/min/mg. For the same compound, in data set [2], the “effect on P of raising preincubation temperature” value is “did increase P”, the “effect on inactivation time course of raising preincubation temperature” value is “little effect” and the “efficiency … (suicide inhibition)” value was “more efficient suicide inhibitors”.

`CC1=C(CC/C(C)=C/CCC2=CC[C@H](C3=CC(=O)O[C@H]3O)O[C@H]2O)C(C)(C)CCC1` [manoalide]: the “inhibition of cobra venom PLA2” value in data set [5] was “inhibitor of both cobra and bee venom phospholipase A2”. Besides, the “inhibition of bee venom PLA2” value in data set [6] is “inhibitor of both cobra and bee venom phospholipase A2”. Besides, the anti-inflammatory activity result in data set [7] was “anti-inflammatory activity in vivo”. Besides, the “mode of PLA2 inactivation” value in the data set with PLA2 is listed as “time-dependent irreversible inactivation”.

Values taken from US5308766A (priority 1990, dated 1994).
